Results as given in patent US5236931A, “2-substituted benzamide and benzoate derivatives of 3-aminoquinuclidine and 3-quinuclidinol” (priority 1992, dated 1993).

What was measured:
[1] = tested on: gastric emptying of a test meal; assay: Effect on Gastric Emptying of a Test Meal in Rats; assay type: in vivo; conditions: rat
[2] = reported by Mikhlina et al; cited from earlier work

Nc1cc(OCc2cccc(Cl)c2)c(C(=O)NC2CN3CCC2CC3)cc1Cl (centres unmarked) [Example VI, 4-Amino-N-(1-azabicyclo[2.2.2]oct-3-yl)-5-chloro-2-[(3-chlorophenyl)methoxy]benzamide]
Gastric emptying: % change in meal emptied ([1]; 1.0 mg/kg IP): 52%

O=C(NC1CN2CCC1CC2)c1ccccc1 (centres unmarked) [N-(1-azabicyclo[2.2.2]oct-3-yl)benzamide]
reported activities [2]: hypotensive, narcotic and ganglionic stimulation and blocking activities

Cc1nc(COc2cc(N)c(Cl)cc2C(=O)NC2CN3CCC2CC3)cs1 (centres unmarked) [Example I, 4-Amino-N-(1-azabicyclo[2,2,2]oct-3-yl)-5-chloro-2-[(2-methylthiazol-4-yl)methoxy]benzamide]
Gastric emptying: % change in meal emptied ([1]; 9.0 mg/kg IP): 36%

Nc1cc(OCc2ccccc2)c(C(=O)NC2CN3CCC2CC3)cc1Cl (centres unmarked) [Example V, 4-Amino-N-(1-azabicyclo[2.2.2]oct-3-yl)-5-chloro-2-(phenylmethoxy)benzamide]
Gastric emptying: % change in meal emptied ([1]; 1.0 mg/kg IP): 61%

Cc1nc(COc2cc(N)c(Cl)cc2C(=O)N[C@@H]2CN3CCC2CC3)cs1 [Example I (S)-isomer, S-(-)-4-Amino-N-(1-azabicyclo[2,2,2]oct-3-yl)-5-chloro-2-[(2-methyl-4-thiazolyl)methoxy]benzamide]
Gastric emptying: % change in meal emptied ([1]; 9.0 mg/kg IP): 43%

Nc1ccc(C(=O)NC2CN3CCC2CC3)cc1 (centres unmarked) [4-amino-N-(1-azabicyclo[2.2.2]oct-3-yl)-benzamide]
reported activities [2]: hypotensive, narcotic and ganglionic stimulation and blocking activities

Nc1cc(OCc2cccc(I)c2)c(C(=O)NC2CN3CCC2CC3)cc1Cl (centres unmarked) [Example VII, 4-Amino-N-(1-azabicyclo[2.2.2]oct-3-yl)-5-chloro-2-[(3-iodophenyl)methoxy]benzamide]
Gastric emptying: % change in meal emptied ([1]; 0.10 mg/kg IP): 28%

Cc1nc(COc2cc(N)c(Cl)cc2C(=O)N[C@H]2CN3CCC2CC3)cs1 [Example I (R)-isomer, (R)-(+)-4-Amino-N-(1-azabicyclo[2,2,2]oct-3-yl)-5-chloro-2-[(2-methyl-4-thiazolyl)methoxy]benzamide]
Gastric emptying: % change in meal emptied ([1]; 9.0 mg/kg IP): 34%
